According to US11491162B2, “Combination of quinoline-4-carboxamides and benzonaphthyridine derivatives as antimalarial drug combination” (Merck Patent GmbH, priority 2018, dated 2022):
Values joined by “and” are separate entries in the source; they are usually repeats but may differ in a detail not shown here. Equal values may be shown once. Where a name gives a salt, the structure may show the parent alone. Read-outs that look alike come from different tables or passages of the source.

Columns and labels:
[1] = system: P. falciparum Pf3D7^0087/N9; assay: In vivo SCID mouse model, oral therapeutic efficacy; parameters: species or system Plasmodium falciparum; details: for % control: day 7; for Activity: day 7 vs untreated control, succinate salt
Procedure: Compound efficacy was assessed against the Plasmodium falciparum strain Pf3D7^0087/N9 in vivo. Mice are infected intravenously with parasitized red blood cells on day 0. Experimental mice are generally treated at day 3, 4, 5, and 6 post-infection with an oral dose of the compound (single or 4-day oral dosing regimen) and are compared to an infected control group for reduction in parasitemia on day 7 (Maria Belen Jimenez-Díaz, Teresa Mulet, Sara Viera, Vanessa Gomez, Helen Garuti, Javier Ibanez, Angela Alvarez-Doval, Leonard D. Shultz, Antonio Martínez, Domingo Gargallo-Viola, and Inigo Angulo-Barturen, Improved Murine Model of Malaria Using Plasmodium falciparum Competent Strains and Non-Myelodepleted NOD-scid IL2Rgammanull Mice Engrafted with Human Erythrocytes, Antimicrob Agents Chemother. 2009, 53:4533).
PYRO and M1 were solubilized in a vehicle consisting of 70% Tween-80 and 30% ethanol, followed by a 10-fold dilution in H2O.

[2] = In vitro permeability in Caco-2 cells; assay type: in vitro ADME; details: human
Procedure: (§1) Caco-2 cells are maintained in DMEM in an atmosphere of 8.5% CO2. For transport experiments 0.125×10^6 cells/well of are seeded on polycarbonate filter inserts and are allowed to grow and differentiate for 14±1 days before the cell monolayers are used for experiments. Drug transport experiments are carried out using a cocktail approach in a four-dimensional setting. […] […] The assays are performed in HBSS containing 25 mM HEPES (pH 7.4) in an atmosphere of 5% CO2 at 37° C. Prior to the study, the monolayers are washed in pre-warmed HBSS. At the start of the experiments pre-warmed HBSS containing the test items is added to the donor side of the monolayer and HBSS without test items is added to the receiver side. The plates are shaken at 150 rpm at 37° C. during the experiment. After 2 h the Transwell insert containing the monolayer is carefully removed and placed in a new plate and aliquots of both the receiver and donor sides were taken and diluted with an equal volume of acetonitrile containing the internal standard. The mixture is centrifuged and supernatant analyzed by LC-MS/MS. The apparent permeability coefficients (Papp) are calculated using the formula: Papp=[Vrec/(A×C0,donor)](dCrec/dt)×10^6 with dCrev/dt being the change in concentration in the receiver compartment with time, Vrec the volume of the sample in the receiver compartment, C0, donor the concentration in the donor compartment at time 0, and A the area of the compartment with the cells.

Caco-2 cells = assay: In vitro permeability in Caco-2 cells; assay type: in vitro ADME; details: pH 7.4/7.4, Table 8
Procedure: as §1

[3] = M1 4 × 0.2 MG/KG oral, SCID mice, Table 3
[4] = M1 4 × 0.4 MG/KG oral, SCID mice, Table 3
[5] = M1 4 × 0.6 MG/KG oral, SCID mice, Table 3
[6] = M1 4 × 1.2 MG/KG oral, SCID mice, Table 3
[7] = Table 4 entry 2: M1 4 × 1.2 mg/kg, PYRO 0 mg/kg, oral

O=C(NCCN1CCCC1)c1cc(-c2ccc(CN3CCOCC3)cc2)nc2ccc(F)cc12 [M1, 6-fluoro-2-(4-morpholin-4-ylmethyl-phenyl)-quinoline-4-carboxylic acid (2-pyrrolidin-1-yl-ethyl)amide succinate salt]
% PARASITEMIA day 3 post infection [1, 3]: 0.85% | % PARASITEMIA day 4 post infection [1, 3]: 1.33% | % PARASITEMIA day 5 post infection [1, 3]: 3.10% | % PARASITEMIA day 6 post infection [1, 3]: 3.35% | % PARASITEMIA day 7 post infection [1, 3]: 6.55% | % control ([1]; M1 4 × 0.2 MG/KG oral, SCID mice): 71.7% | Activity ([1]; M1 4 × 0.2 MG/KG oral, SCID mice, 0.2 mg/kg): 28.3% | % PARASITEMIA day 3 post infection [1, 4]: 0.70% | % PARASITEMIA day 4 post infection [1, 4]: 1.38% | % PARASITEMIA day 5 post infection [1, 4]: 1.18% | % PARASITEMIA day 6 post infection [1, 4]: 0.75% | % PARASITEMIA day 7 post infection [1, 4]: 0.55% | % control ([1]; M1 4 × 0.4 MG/KG oral, SCID mice): 6.0% | Activity ([1]; M1 4 × 0.4 MG/KG oral, SCID mice, 0.4 mg/kg): 94.9% and 94.0% | % PARASITEMIA day 3 post infection [1, 5]: 0.63% | % PARASITEMIA day 4 post infection [1, 5]: 0.70% | % PARASITEMIA day 5 post infection [1, 5]: 0.60% | % PARASITEMIA day 6 post infection [1, 5]: 0.13% | % PARASITEMIA day 7 post infection [1, 5]: 0.03% | % control ([1]; M1 4 × 0.6 MG/KG oral, SCID mice): 0.3% | Activity ([1]; M1 4 × 0.6 MG/KG oral, SCID mice, 0.6 mg/kg): 99.7% | % PARASITEMIA day 3 post infection [1, 6]: 0.50% | % PARASITEMIA day 4 post infection [1, 6]: 0.75% | % PARASITEMIA day 5 post infection [1, 6]: 0.43% | % PARASITEMIA day 6 post infection [1, 6]: 0.05% | % PARASITEMIA day 7 post infection ([1]; M1 4 × 1.2 MG/KG oral, SCID mice, Table 3, LLQ = <0.01% parasitemia): <LLQ | % control ([1]; M1 4 × 1.2 MG/KG oral, SCID mice, LLQ = <0.01% parasitemia): <LLQ | Activity ([1]; M1 4 × 1.2 MG/KG oral, SCID mice, 1.2 mg/kg): 100% | ED90 ([1]; M1, 4-day oral dosing, SCID mice, dose as free base): 0.37 mg/kg | % PARASITEMIA day 3 post infection [1, 7]: 0.99% | % PARASITEMIA day 4 post infection [1, 7]: 1.04% | % PARASITEMIA day 5 post infection [1, 7]: 0.7% | % PARASITEMIA day 6 post infection [1, 7]: 0.12% | % PARASITEMIA day 7 post infection [1, 7]: 0.01% | % PARASITEMIA day 10 post infection ([1]; Table 4 entry 2: M1 4 × 1.2 mg/kg, PYRO 0 mg/kg, oral, LLQ = <0.01% parasitemia): <LLQ | efflux ratio at 2 h, 1 μM ([2]; Caco-2, pH 7.4, PYRO 0 μM, pH 7.4/7.4, Table 8): 15.4 | efflux ratio at 2 h, 1 μM ([2]; Caco-2, pH 7.4, no P-gp inhibitor, pH 7.4/7.4, Table 7): 18.2 | recovery at 2 h, 1 μM ([2]; Caco-2, pH 7.4, no P-gp inhibitor, pH 7.4/7.4, Table 7, read-out: RECOVERY apical to basolateral (A-B)): 79.8% | recovery at 2 h, 1 μM ([2]; Caco-2, pH 7.4, no P-gp inhibitor, pH 7.4/7.4, Table 7, read-out: RECOVERY basolateral to apical (B-A)): 65.4% | recovery at 2 h, 1 μM ([2]; Caco-2, pH 7.4, with Cyclosporine A 10 μM, with Cyclosporine A 10 μM, pH 7.4/7.4, Table 7, read-out: RECOVERY apical to basolateral (A-B)): 72.5% | recovery at 2 h, 1 μM ([2]; Caco-2, pH 7.4, with Cyclosporine A 10 μM, with Cyclosporine A 10 μM, pH 7.4/7.4, Table 7, read-out: RECOVERY basolateral to apical (B-A)): 86.3% | efflux ratio at 2 h, 1 μM ([2]; Caco-2, pH 7.4, with PYRO 0.3 μM, PYRO 0.3 μM, pH 7.4/7.4, Table 8): 10.1 | efflux ratio at 2 h, 1 μM ([2]; Caco-2, pH 7.4, with PYRO 1 μM, PYRO 1 μM, pH 7.4/7.4, Table 8): 14.5 | efflux ratio at 2 h, 1 μM ([2]; Caco-2, pH 7.4, with PYRO 3 μM, PYRO 3 μM, pH 7.4/7.4, Table 8): 10.2 | efflux ratio at 2 h, 1 μM ([2]; Caco-2, pH 7.4, with PYRO 10 μM, PYRO 10 μM, pH 7.4/7.4, Table 8): 11 | efflux ratio at 2 h, 1 μM ([2]; Caco-2, pH 7.4, with PYRO 30 μM, PYRO 30 μM, pH 7.4/7.4, Table 8): 5.06 | efflux ratio at 2 h, 1 μM ([2]; Caco-2, pH 7.4, with PYRO 100 μM, PYRO 100 μM, pH 7.4/7.4, Table 8): 2.42 | Papp at 2 h, 1 μM ([2]; Caco-2, with PYRO 0.3 μM, PYRO 0.3 μM, pH 7.4/7.4, Table 8): 9.74 ×10⁻⁶ cm/s | Papp A→B at 2 h, 1 μM ([2]; Caco-2, with PYRO 0.3 μM, PYRO 0.3 μM, pH 7.4/7.4, Table 8, read-out: PAPP (A-B)): 3.07 ×10⁻⁶ cm/s | Papp at 2 h, 1 μM ([2]; Caco-2, with PYRO 1 μM, PYRO 1 μM, pH 7.4/7.4, Table 8): 8.25 ×10⁻⁶ cm/s | Papp A→B at 2 h, 1 μM ([2]; Caco-2, with PYRO 1 μM, PYRO 1 μM, pH 7.4/7.4, Table 8, read-out: PAPP (A-B)): 2.17 ×10⁻⁶ cm/s | Papp B→A at 2 h, 1 μM ([2]; Caco-2, with PYRO 1 μM, PYRO 1 μM, pH 7.4/7.4, Table 8, read-out: PAPP (B-A)): 31.4 ×10⁻⁶ cm/s | Papp at 2 h, 1 μM ([2]; Caco-2, with PYRO 3 μM, PYRO 3 μM, pH 7.4/7.4, Table 8): 12.3 ×10⁻⁶ cm/s | Papp A→B at 2 h, 1 μM ([2]; Caco-2, with PYRO 3 μM, PYRO 3 μM, pH 7.4/7.4, Table 8, read-out: PAPP (A-B)): 3.85 ×10⁻⁶ cm/s | Papp B→A at 2 h, 1 μM ([2]; Caco-2, with PYRO 3 μM, PYRO 3 μM, pH 7.4/7.4, Table 8, read-out: PAPP (B-A)): 39.1 ×10⁻⁶ cm/s | Papp at 2 h, 1 μM ([2]; Caco-2, with PYRO 10 μM, PYRO 10 μM, pH 7.4/7.4, Table 8): 11.3 ×10⁻⁶ cm/s | Papp A→B at 2 h, 1 μM ([2]; Caco-2, with PYRO 10 μM, PYRO 10 μM, pH 7.4/7.4, Table 8, read-out: PAPP (A-B)): 3.42 ×10⁻⁶ cm/s | Papp B→A at 2 h, 1 μM ([2]; Caco-2, with PYRO 10 μM, PYRO 10 μM, pH 7.4/7.4, Table 8, read-out: PAPP (B-A)): 37.6 ×10⁻⁶ cm/s | Papp at 2 h, 1 μM ([2]; Caco-2, with PYRO 30 μM, PYRO 30 μM, pH 7.4/7.4, Table 8): 16.4 ×10⁻⁶ cm/s | Papp A→B at 2 h, 1 μM ([2]; Caco-2, with PYRO 30 μM, PYRO 30 μM, pH 7.4/7.4, Table 8, read-out: PAPP (A-B)): 7.29 ×10⁻⁶ cm/s | Papp B→A at 2 h, 1 μM ([2]; Caco-2, with PYRO 30 μM, PYRO 30 μM, pH 7.4/7.4, Table 8, read-out: PAPP (B-A)): 36.9 ×10⁻⁶ cm/s | Papp at 2 h, 1 μM ([2]; Caco-2, with PYRO 100 μM, PYRO 100 μM, pH 7.4/7.4, Table 8): 30 ×10⁻⁶ cm/s | Papp A→B at 2 h, 1 μM ([2]; Caco-2, with PYRO 100 μM, PYRO 100 μM, pH 7.4/7.4, Table 8, read-out: PAPP (A-B)): 19.3 ×10⁻⁶ cm/s | Papp B→A at 2 h, 1 μM ([2]; Caco-2, with PYRO 100 μM, PYRO 100 μM, pH 7.4/7.4, Table 8, read-out: PAPP (B-A)): 46.7 ×10⁻⁶ cm/s | Papp at 2 h, 1 μM ([2]; Caco-2, with none (PYRO 0 μM), PYRO 0 μM, pH 7.4/7.4, Table 8): 7.8 ×10⁻⁶ cm/s | Papp A→B at 2 h, 1 μM ([2]; Caco-2, with none (PYRO 0 μM), PYRO 0 μM, pH 7.4/7.4, Table 8, read-out: PAPP (A-B)): 2 ×10⁻⁶ cm/s | Papp B→A at 2 h, 1 μM ([2]; Caco-2, with none (PYRO 0 μM), PYRO 0 μM, pH 7.4/7.4, Table 8, read-out: PAPP (B-A)): 30.6 ×10⁻⁶ cm/s | Papp A→B at 2 h, 1 μM ([2]; Caco-2, with none (no P-gp inhibitor), no P-gp inhibitor, pH 7.4/7.4, Table 7, read-out: PAPP apical to basolateral (A-B)): 2.97 ×10⁻⁶ cm/s | Papp B→A at 2 h, 1 μM ([2]; Caco-2, with none (no P-gp inhibitor), no P-gp inhibitor, pH 7.4/7.4, Table 7, read-out: PAPP basolateral to apical (B-A)): 54.2 ×10⁻⁶ cm/s | PAPP (A-B) (Caco-2 cells; PYRO 0 μM): 2.00 10E−6 CM/S | PAPP (B-A) (Caco-2 cells; PYRO 0.3 μM): 30.90 10E−6 CM/S | PAPP (A-B) (Caco-2 cells; PYRO 100 μM): 19.3 10E−6 CM/S
